Reference: ChEMBL document CHEMBL4673248, “Discovery and Characterization of BAY 1214784, an Orally Available Spiroindoline Derivative Acting as a Potent and Selective Antagonist of the Human Gonadotropin-Releasing Hormone Receptor as Proven in a First-In-Human Study in Postmenopausal Women” (J Med Chem, 2020)
pIC50: −log10 of the molar value.

What was measured:
[1] = target: T1, Gonadotropin-releasing hormone receptor (Homo sapiens, UniProt P30968); experiment: Antagonist activity at human GnRH receptor expressed in CHO-K1 cells assessed as inhibition of LHRH-induced response preincubated for 20 mins followed by LHRH addition and measured after 60 mins by TR-FRET assay; assay type: cell-based
T1 sequence (P30968 whole entry): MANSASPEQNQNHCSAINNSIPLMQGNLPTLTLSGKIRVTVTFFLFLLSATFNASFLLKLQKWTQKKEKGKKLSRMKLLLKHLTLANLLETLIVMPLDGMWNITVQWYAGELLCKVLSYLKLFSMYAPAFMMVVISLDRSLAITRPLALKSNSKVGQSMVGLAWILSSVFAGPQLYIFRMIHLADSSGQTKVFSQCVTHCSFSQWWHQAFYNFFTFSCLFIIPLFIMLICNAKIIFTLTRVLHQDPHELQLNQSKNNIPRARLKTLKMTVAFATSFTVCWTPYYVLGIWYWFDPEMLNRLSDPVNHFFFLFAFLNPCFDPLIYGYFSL

[2] = target: T1, Gonadotropin-releasing hormone receptor; experiment: Antagonist activity at human GnRH receptor expressed in CHO-K1 cells assessed as inhibition of buserelin-induced response preincubated for 20 mins followed by buserelin addition and measured after 60 mins by TR-FRET assay; assay type: cell-based

| SMILES | pIC50 [1] | pIC50 [2] |
| --- | --- | --- |
| O=C(Nc1ccc2c(c1)C1(CC[S+]([O-])CC1)C(C1CC1)N2S(=O)(=O)c1ccc(F)cc1)c1cccnc1 (centres undefined) | 7.74 | 7.44 |
| CC(=O)N1CCC2(CC1)c1cc(C(=O)NCc3ccccc3Cl)ccc1N(S(C)(=O)=O)C2C (racemic) | 5.00 | 4.74 |
| CC(=O)N1CCC2(CC1)c1cc(C(=O)NCc3ccccc3Cl)ccc1N(C(=O)c1ccc(F)cc1)C2C (racemic) | 4.75 | < 4.70 |
| O=C(NCc1ncc(F)cc1Cl)c1ccc2c(c1)C1(CCS(=O)(=O)CC1)C(C1CC1)N2S(=O)(=O)c1ccc(F)cc1 (racemic) | 7.19 | 6.84 |
| CC(=O)N1CCC2(CC1)c1cc(C(=O)NCc3ccccc3)ccc1N(S(=O)(=O)c1ccc(F)cc1)C2C1CC1 (racemic) | 6.68 | 6.26 |
| CC(=O)N1CCC2(CC1)c1cc(C(=O)NCc3ccccc3Cl)ccc1N(S(=O)(=O)c1cccnc1)C2C (racemic) | 6.86 | 6.57 |
| O=C(NCc1ncc(C(F)(F)F)cc1Cl)c1ccc2c(c1)C1(CCS(=O)(=O)CC1)C(C1CC1)N2S(=O)(=O)c1ccc(F)cc1 (stereo in doubt) |  | 5.61 |
| CC(=O)N1CCC2(CC1)c1cc(NC(=O)c3cccc(F)c3)ccc1N(S(=O)(=O)c1ccc(F)cc1)C2C1CC1 (racemic) | 8.00 | 7.74 |
| N=S1(=O)CCC2(CC1)c1cc(NC(=O)c3cccnc3)ccc1N(S(=O)(=O)c1ccc(F)cc1)C2C1CC1 (stereo in doubt; form 2) | 7.89 | 7.59 |
| CC(=O)N1CCC2(CC1)c1cc(C(=O)NCc3ccccc3Cl)ccc1N(S(=O)(=O)c1ccc(F)cc1)C2CCO (racemic) | 6.23 | 5.94 |
| O=C(NCc1ncccc1Cl)c1ccc2c(c1)C1(CCS(=O)(=O)CC1)C(C1CC1)N2S(=O)(=O)c1ccc(F)cc1 (racemic) | 7.05 | 6.65 |
| CC(=O)N1CCC2(CC1)c1cc(C(=O)NCc3ccc(F)cc3Cl)ccc1N(S(=O)(=O)c1ccc(F)cc1)C2C1CC1 (racemic) | 7.42 | 7.11 |
| O=C(NCc1ccccn1)c1ccc2c(c1)C1(CCS(=O)(=O)CC1)C(C1CC1)N2S(=O)(=O)c1ccc(F)cc1 (racemic) | 6.61 | 6.04 |
| O=C(NCc1ccc(C(F)(F)F)cn1)c1ccc2c(c1)C1(CCS(=O)(=O)CC1)C(C1CC1)N2S(=O)(=O)c1ccc(F)cc1 (racemic) | 6.80 | 6.38 |
| CC(=O)N1CCC2(CC1)c1cc(C(=O)NCc3ccccc3Cl)ccc1N(S(=O)(=O)c1ccc(C(F)(F)F)cc1)C2C (racemic) | < 4.70 | 4.86 |
| CC(=O)N1CCC2(CC1)c1cc(C(=O)NC3(c4ccccc4Cl)CC3)ccc1N(S(=O)(=O)c1ccc(F)cc1)C2C1CC1 (racemic) | 6.79 | 5.98 |
| CC1N(S(=O)(=O)c2ccc(F)cc2)c2ccc(NC(=O)c3cccnc3)cc2C12CCOCC2 (racemic) | 7.28 | 6.85 |
| C=CCC1N(S(=O)(=O)c2ccc(F)cc2)c2ccc(C(=O)NCc3ccccc3Cl)cc2C12CCN(C(C)=O)CC2 (racemic) | 8.00 | 7.66 |
| CC(=O)N1CCC2(CC1)c1cc(C(=O)NCc3ccccc3Cl)ccc1N(S(=O)(=O)c1ccc(F)cc1)C2C1CC1 (racemic) | 7.62 | 7.33 |
| CC(=O)N1CCC2(CC1)c1cc(C(=O)NC3(c4ccc(Cl)cc4)CC3)ccc1N(S(=O)(=O)c1ccc(F)cc1)C2C1CC1 (racemic) | 7.25 | 7.04 |
| O=C(Nc1ccc2c(c1)C1(CCSCC1)C(C1CC1)N2S(=O)(=O)c1ccc(F)cc1)c1cccnc1 (racemic) | 7.32 | 6.88 |
| CC(=O)N1CCC2(CC1)c1cc(C(=O)NCc3ccccc3Cl)ccc1N(S(=O)(=O)c1ccc(F)cc1)C2C (stereo in doubt; form 1) | < 4.70 | < 4.70 |
| CC(=O)N1CCC2(CC1)c1cc(C(=O)NCc3ccccc3Cl)ccc1N(S(=O)(=O)c1ccc(F)cc1)C2C (stereo in doubt; form 2) | 7.68 |  |
